{"source": "patent US20220409617A1", "about": "“Drug Formulations and Methods of Treatment for Metabolic Disorders” (The Regents of the University of California, priority 2019, published 2022)", "experiment": "Indirect calorimetry and food intake in metabolic cages", "type": "in vivo, mouse", "description": "To examine the effects of sphingolipid-like compound 893 on whole body metabolism, indirect calorimetry was performed. Male C57BL/6J mice were maintained on the SD or HFD for 10-12 weeks, acclimated to metabolic cages that mimic the home environment, and then treated with vehicle or 120 mg/kg sphingolipid-like compound 893 by gavage at ZT8.5. […] As expected, RER values were lower during both light and dark cycles and diurnal fluctuations in substrate utilization were blunted in HFD-fed mice relative to SD controls (FIGS. 29 & 30). […] Consistent with the pharmacokinetic properties of sphingolipid-like compound 893 (see FIG. 12), RER returned to control values 24 h after sphingolipid-like compound 893 treatment (FIGS. 28 & 29). Animals were similarly responsive to a second treatment with sphingolipid-like compound 893 given 48 h after the first.\nMetabolic parameters were measured using the Phenomaster system (TSE Systems Inc., Chesterfield, Mo.). The climate chamber was set to 21° C. and 50% humidity with a 12:12 h light-dark cycle. Mice were singly housed inside the chamber and acclimated for 48 h prior to data collection. VO2, VCO2, and food intake was measured every 27 min. Respiratory exchange ratio (RER) was calculated using the formula RER=VCO2/VO2. Energy expenditure was calculated using the equation EE=1.44(3.941×VO2+1.106×VCO2). In the indirect calorimetry studies in FIGS. 12 to 14, C57BL/6J mice were maintained on the HFD or SD for 10-12 weeks prior to evaluation and were naïve to therapy. Mice were serially evaluated in cohorts of 4 vehicle- and 4 sphingolipid-like compound 893-treated mice using 8 metabolic cages. Treatment was by gavage at ZT8.5, sphingolipid-like compound 893 was administered at 120 mg/kg in water. To evaluate the effect of morning treatment, vehicle or 120 mg/kg sphingolipid-like compound 893 was administered at ZT2 to 18 week old C57BL/6J males on a standard diet. Liquid diet experiments were also performed on 18 week old C57BL/6J males; mice were treated with sphingolipid-like compound 893 at ZT8.5 and food access was restricted at ZT11. Liquid feed (AIN-76, BioServ, Flemington, N.J.) was prepared at 1000 kcal/L in milli-Q water and at ZT12, mice were gavaged with 400 μL (0.4 kcal) of diet, corresponding to approximately 3 h of ad libitum consumption of standard chow. For the pair feeding study, RER was monitored over 12 h in mice maintained on the HFD for 22 weeks (31 weeks of age); pair-fed mice were used after a 48 h wash-out period and provided with the average amount of food they ate over 24 h after sphingolipid-like compound 893 treatment (92.5 mg or 0.4 kcal).\nDuring measurements of one SD cohort (4 vehicle- and 4 sphingolipid-like compound 893-treated mice), a leak in the reference CO2 system was detected, the O2 and CO2 data was censored until the leak was corrected (70-74 h). Feeding and activity measurements were not compromised and were still analyzed. Occasionally, uneaten food was found on the floor of the cage precluding use of the hopper sensor to accurately monitor food intake. In these instances, food intake data was censored for the prior 24 h period (days 2 and 3 for mouse 8 (SD+sphingolipid-like compound 893) and mouse 8 (SD+vehicle), and day 3 for mouse 8 (HFD+sphingolipid-like compound 893) and mouse 1 (HFD+vehicle)). […] In rare cases, inadvertent pharyngeal administration of gavage material occurred. These mice were not euthanized, but food intake, calorimetry, and activity data from these animals was excluded from the analysis for 1 week after this event (mouse 2 (HFD+sphingolipid-like compound 893) after the second treatment on day 3 and mouse 5 (HFD+sphingolipid-like compound 893) after the first dose on day 1).", "key": {"[1]": {"settings": "mice on SD or HFD 10-12 weeks, 120 mg/kg p.o. at ZT8.5"}}}
{"smiles": "CCCCCCCCc1ccc([C@H]2CCN[C@@H]2CO)cc1.Cl", "note": "[compound 893]", "values": [{"measurement": "Food intake and RER, morning dosing", "setting": "120 mg/kg at ZT2, mice on standard diet", "value": "still decreased both food intake and RER"}, {"measurement": "Activity (XY beam breaks)", "setting": "120 mg/kg p.o. at ZT8.5", "value": "trend towards reduced activity"}, {"measurement": "Energy expenditure (Weir formula)", "setting": "120 mg/kg p.o. at ZT8.5", "value": "not significantly affected"}, {"measurement": "Time after treatment at which RER returned to control values", "setting": "120 mg/kg p.o. at ZT8.5", "value": 24, "unit": "h"}, {"measurement": "Food intake and body weight loss, HFD for 22 weeks", "setting": "mice on HFD 22 weeks, 120 mg/kg once at ZT8.5", "value": "the suppression of food intake and body weight loss appeared to increase"}, {"measurement": "Food intake in metabolic caging", "setting": "[1]", "value": "reduced food intake"}, {"measurement": "Respiratory exchange ratio (RER)", "setting": "[1]", "value": "reduced the RER in both HFD- and SD-fed mice"}]}
